We go through 24 molecules from patent US20140296065A1, “USE OF 5-FLUOROCYTOSINE AS A FUNGICIDE” (DOW AGROSCIENCES LLC, priority 2008, published 2014).

Where two headings read alike, the source gives them in different places.

What all share (assay type): in vivo
Test [1] deals with Mycosphaerella graminicola; anamorph: Septoria tritici; Bayer code SEPTTR. Nature of the test: Leaf Blotch of Wheat fungicidal activity. To be noted: for pest or weed control at 100 ppm: Zymoseptoria tritici. Here is the method:
(§1) For the following examples, 5-fluorocytosine or a 5-fluorocytosine derivative was either dissolved in acetone or water, and dilutions were performed to obtain desirable rates. The spray solutions contained either 0.01% triton X-100 or 0.1% Trycol 5941. For high-volume spray, plants were sprayed to run-off using an automated booth sprayer. For a low-volume test, fungicide was applied using a track sprayer with application volume of 200 liters/hectare (L/H).
(§2) Plants were inoculated with fungal pathogens either 3 days before compound application (3-day curative test; 3DC) or 1 day after compound application (1-day protectant test; 1DP).
• 1. Evaluation of Fungicidal Activity: Leaf Blotch of Wheat (Mycosphaerella graminicola; anamorph: Septoria tritici; Bayer code SEPTTR):
Wheat plants (variety Yuma) were grown from seed in a greenhouse in 50% mineral soil/50% soil-less Metro mix until the first leaf was fully emerged, with 7-10 seedlings per pot. These plants were inoculated with an aqueous spore suspension of Septoria tritici either prior to or after fungicide treatments. After inoculation the plants were kept in 100% relative humidity (one day in a dark dew chamber followed by two to three days in a lighted dew chamber) to permit spores to germinate and infect the leaf. The plants were then transferred to a greenhouse for disease to develop. • 2. Evaluation of Fungicidal Activity: Glume Blotch of Wheat (Leptosphaeria nodorum; Bayer code LEPTNO; anamorph: Stagonospora nodorum):
(§3) The following tables present the activity of 5-fluorocytosine (Table I) or a 5-fluorocytosine derivative (Table II) when evaluated in these experiments. The effectiveness of 5-fluorocytosine or 5-fluorocytosine derivative in controlling disease was determined by assessing the severity of disease on treated plants, then converting the severity to percent control based on the level of disease on untreated, inoculated plants. • In each case of Tables I and II the rating scale is as follows: […]

The subject of test [2] is Mycosphaerella fijiensis; BAYER code MYCOFI. Kind of test: Black Sigatoka Disease of Banana fungicidal activity. Here is the method:
as §1
Plants were inoculated with fungal pathogens either 3 days before compound application (3-day curative test; 3DC) or 1 day after compound application (1-day protectant test; 1DP). […]
Efficacy against Mycosphaerella fijiensis was tested using newly emerged leaves of field grown banana plants. […] The leaves were subsequently allowed to become infected by natural inoculum, and were visually assessed for percent disease control ˜40-45 days later.
as §3

Test [3] deals with Venturia inaequalis; Bayer code VENTIN. Nature of the test: Apple Scab fungicidal activity. To be noted: 75 ppm.
Test [4] relates to Leptosphaeria nodorum; Bayer code LEPTNO; anamorph: Stagonospora nodorum. Kind of test: Glume Blotch of Wheat fungicidal activity. The following applies: 100 ppm. Here is the method:
as §1, §2
Wheat plants (variety Yuma) were grown from seed in a greenhouse in 50% mineral soil/50% soil-less Metro mix until the first leaf was fully emerged, with 7-10 seedlings per pot. […]
as §3

Test [5] deals with Cercospora beticola; Bayer code CERCBE. Nature of the test: Leaf Spot of Sugar Beets fungicidal activity. The following applies: 100 ppm, 1DP (1-day protectant).
Test [6] concerns Glomerella lagenarium; anamorph: Colletotrichum lagenarium; Bayer code COLLLA. Nature of the test: Cucumber Anthracnose fungicidal activity. The following applies: 200 ppm, 1DP (1-day protectant).
The subject of test [7] is Cochliobolus sativum; Bayer code COCHSA; anamorph: Helminthosporium sativum. Nature of the test: Spot Blotch of Barley fungicidal activity. To be noted: 200 ppm, 1DP (1-day protectant). As for the experimental part:
For the following examples, 5-fluorocytosine or a 5-fluorocytosine derivative was either dissolved in acetone or water, and dilutions were performed to obtain desirable rates. The spray solutions contained either 0.01% triton X-100 or 0.1% Trycol 5941. For high-volume spray, plants were sprayed to run-off using an automated booth sprayer. For a low-volume test, fungicide was applied using a track sprayer with application volume of 200 liters/hectare (L/H). Plants were inoculated with fungal pathogens either 3 days before compound application (3-day curative test; 3DC) or 1 day after compound application (1-day protectant test; 1DP). […] Evaluation of Fungicidal Activity: Leaf Spot of Sugar Beets (Cercospora beticola; Bayer code CERCBE): The following tables present the activity of 5-fluorocytosine (Table I) or a 5-fluorocytosine derivative (Table II) when evaluated in these experiments. The effectiveness of 5-fluorocytosine or 5-fluorocytosine derivative in controlling disease was determined by assessing the severity of disease on treated plants, then converting the severity to percent control based on the level of disease on untreated, inoculated plants. • In each case of Tables I and II the rating scale is as follows: […]

[8] abbreviates: 24 h, SEPTTR, wheat, 100 ppm, One-Day Protectant (1DP), % disease control rating, read-out: SEPTTR 100 PPM 1DP.
Setting [9] is: 72 h, SEPTTR, wheat, 100 ppm, Three-Day Curative (3DC), % disease control rating, read-out: SEPTTR 100 PPM 3DC.
The mark [10] stands for this setting: 24 h, read-out: SEPTTR 100 PPM 1DP.
Setting [11] is: 72 h, read-out: SEPTTR 100 PPM 3DC.

In the case of `O=C(Nc1nc(O)ncc1F)c1cccc(Br)c1` [Cmpd 23], the pest or weed control at 100 ppm was 26 to 50% in test [1] (setting [8]) and 0 to 25% in test [1] (setting [9]).

As to `O=C(Nc1nc(O)ncc1F)c1ccccc1` [Cmpd 12], the pest or weed control at 100 ppm in test [1] (setting [8]) and in test [1] (setting [9]) was 76 to 100% each time.

As for `CCCCCCCCCCCC(=O)Nc1nc(O)ncc1F` [Cmpd 9], the pest or weed control at 100 ppm in test [1] (setting [8]) lay in the range of 76 to 100%; in test [1] (setting [9]) it was 26 to 50%.

Regarding `CNc1nc(O)ncc1F` [Cmpd 18], the pest or weed control at 100 ppm was in the range of 0 to 25% in test [1] (setting [8]) and 51 to 75% in test [1] (setting [9]).

Take `Cc1ccc(C(=O)Nc2nc(O)ncc2F)cc1` [Cmpd 5]: the pest or weed control at 100 ppm in test [1] (setting [8]) lay in the range of 76 to 100%; in test [1] (setting [9]) it was 51 to 75%.

As to `Nc1nc(=O)[nH]cc1F` [5-FC, 5-Fluorocytosine], the “% Disease Control of 5-FC” value in test [2] (100 ppm, 3DC (3-day curative)) is “B (51-75)”; in test [2] (200 ppm, 1DP (1-day protectant)), “B (51-75)”; in test [3] (1DP (1-day protectant)), “A (76-100)”; in test [3] (3DC (3-day curative)), “A (76-100)”; in test [4] (1DP (1-day protectant)), “D (0-25)”; in test [4] (3DC (3-day curative)), “C (26-50)”. The “% Disease Control of 5-FC” value in test [5] is given as “A (76-100)”; in test [6] it was “A (76-100)”; in test [7] it was “C (26-50)”; in test [1] (SEPTTR, wheat, 100 ppm, 3DC (3-day curative)), “A (76-100)”; in test [1] (SEPTTR, wheat, 200 ppm, 1DP (1-day protectant)), “A (76-100)”.

For `Cc1ccc(OC(=O)Nc2nc(O)ncc2F)cc1` [Cmpd 15], the pest or weed control at 100 ppm in test [1] (setting [10]) lay within 76 to 100%; in test [1] (setting [11]) it was 51 to 75%.

For `CC(=O)Nc1nc(O)ncc1F` [Cmpd 2], the pest or weed control at 100 ppm in test [1] (setting [8]) and in test [1] (setting [9]) was 76 to 100% each time.

On to `COc1cccc(C(=O)Nc2nc(O)ncc2F)c1` [Cmpd 21], for which the pest or weed control at 100 ppm in test [1] (setting [8]) and in test [1] (setting [9]) was 0 to 25% throughout.

Regarding `O=C(Nc1nc(O)ncc1F)c1ccc(Cl)cc1` [Cmpd 6], the results for the pest or weed control at 100 ppm in test [1] (setting [8]) and in test [1] (setting [9]) were 76 to 100% and 26 to 50%, respectively.

As to `CCONc1nc(O)ncc1F` [Cmpd 17], the pest or weed control at 100 ppm in test [1] (setting [8]) is 26 to 50%; in test [1] (setting [9]), 76 to 100%.

Consider `CCC(=O)Nc1nc(O)ncc1F` [Cmpd 3], for which the pest or weed control at 100 ppm in test [1] (setting [8]) and in test [1] (setting [9]) was 76 to 100% in each case.

Take `CCCC(=O)Nc1nc(O)ncc1F` [Cmpd 11]: the pest or weed control at 100 ppm in test [1] (setting [8]) and in test [1] (setting [9]) was 76 to 100% throughout.

With `CCCCCOC(=O)Nc1nc(O)ncc1F` [Cmpd 19], the pest or weed control at 100 ppm in test [1] (setting [8]) and in test [1] (setting [9]) was 0 to 25% throughout.

On to `CC(C)COC(=O)Nc1nc(O)ncc1F` [Cmpd 7], for which the pest or weed control at 100 ppm in test [1] (setting [8]) and in test [1] (setting [9]) was 51 to 75% each time.

As for `COC(=O)Nc1nc(O)ncc1F` [Cmpd 14], the pest or weed control at 100 ppm in test [1] (setting [8]) is 26 to 50%; in test [1] (setting [9]) it was 0 to 25%.

Consider `COc1ccc(C(=O)Nc2nc(O)ncc2F)cc1` [Cmpd 20], for which the pest or weed control at 100 ppm in test [1] (setting [8]) and in test [1] (setting [9]) was 0 to 25% in each case.

`CCCCCC(=O)Nc1nc(O)ncc1F` [Cmpd 8]: the pest or weed control at 100 ppm in test [1] (setting [8]) and in test [1] (setting [9]) was 76 to 100% in each case.

Turning to `COc1ccccc1C(=O)Nc1nc(O)ncc1F` [Cmpd 22], the pest or weed control at 100 ppm in test [1] (setting [8]) and in test [1] (setting [9]) was 0 to 25% throughout.

`CC(C)(C)C(=O)Nc1nc(O)ncc1F` [Cmpd 4]: the pest or weed control at 100 ppm in test [1] (setting [8]) and in test [1] (setting [9]) was 76 to 100% in each case.

On to `CCC(CC)C(=O)Nc1nc(O)ncc1F` [Cmpd 10], for which the pest or weed control at 100 ppm in test [1] (setting [8]) was 26 to 50%; in test [1] (setting [9]) it was 0 to 25%.

For the molecule `CC(C)C(=O)Nc1nc(O)ncc1F` [Cmpd 13], the pest or weed control at 100 ppm in test [1] (setting [8]) and in test [1] (setting [9]) was 76 to 100% in each case.

Consider `O=C(Nc1nc(O)ncc1F)c1ccccc1Cl` [Cmpd 24], for which the pest or weed control at 100 ppm in test [1] (setting [8]) and in test [1] (setting [9]) was 26 to 50% each time.

As to `O=C(Nc1nc(O)ncc1F)Oc1ccccc1` [Cmpd 16], the pest or weed control at 100 ppm in test [1] (setting [10]) and in test [1] (setting [11]) was 76 to 100% in each case.
